Measured values: ChEMBL document CHEMBL1153497, “Development of antitubercular compounds based on a 4-quinolylhydrazone scaffold. Further structure-activity relationship studies” (Bioorg Med Chem, 2009)
≈ marks a conversion by molar mass, not a printed value. Where “and” joins values, the source holds several entries; their conditions need not be identical. Equal values may be shown once.

Key:
[1] = test system: Mycobacterium tuberculosis; assay: Antitubercular activity against Mycobacterium tuberculosis H37Rv by microplate alamar blue assay; assay type: functional
[2] = test system: Mycobacterium tuberculosis; assay: Antitubercular activity against Mycobacterium tuberculosis H37Rv at 6.25 ug/mL by broth microdilution method; assay type: functional
[3] = Selectivity index, IC50 for african green monkey Vero cells to MIC for Mycobacterium tuberculosis H37Rv; assay type: functional
[4] = test system: Vero; assay: Cytotoxicity against african green monkey Vero cells after 72 hrs by MTT assay; assay type: cell-based; conditions: Chlorocebus sabaeus
[5] = test system: Mycobacterium tuberculosis; assay: Antitubercular activity against Mycobacterium tuberculosis isolate UC0802 by microplate alamar blue assay; assay type: functional
[6] = test system: Mycobacterium tuberculosis; assay: Antitubercular activity against Mycobacterium tuberculosis isolate UC0801 by microplate alamar blue assay; assay type: functional
[7] = test system: Mycobacterium tuberculosis; assay: Antitubercular activity against Mycobacterium tuberculosis H37Rv assessed as CFU treated on day 7 measured after 14 days; assay type: functional, organism-based
[8] = test system: Mycobacterium tuberculosis; assay: Antitubercular activity against Mycobacterium tuberculosis isolate UC0804 by microplate alamar blue assay; assay type: functional
[9] = test system: Mycobacterium tuberculosis; assay: Antitubercular activity against Mycobacterium tuberculosis isolate UC0803 by microplate alamar blue assay; assay type: functional
[10] = test system: Vero; assay: Cytotoxicity against african green monkey Vero cells at > 2.5 ug/mL after 72 hrs by MTT assay; assay type: cell-based; conditions: Chlorocebus sabaeus

| SMILES | MIC [1] | inhibition at 6.25 µg/mL [2] [%] | also measured |
| --- | --- | --- | --- |
| COc1ccc2c(N/N=C/c3ccc4ccccc4n3)ccnc2c1 | 9.5 µM | 99 | – |
| COc1ccc(/C=N/Nc2cc(C)nc3cc4c(cc23)OCO4)cc1 | 9.3 µM | 100 | – |
| COc1ccc2c(N/N=C/c3ccc4c(c3)OCO4)ccnc2c1 | 9.7 µM | 100 | – |
| Cc1cc(N/N=C/c2ccccn2)c2cc3c(cc2n1)OCO3 | – | 74 | – |
| Cc1cc(N/N=C/c2ccnc3ccccc23)c2cc3c(cc2n1)OCO3 | – | 100 | – |
| Cc1cc(N/N=C/c2ccc3ccccc3c2)c2cc3c(cc2n1)OCO3 | – | 100 | – |
| COc1ccc2c(N/N=C/c3ccc(N(C)C)cc3)ccnc2c1 | 4.9 µM | 100 | Selectivity Index [3]: 0.17; IC50 [4]: 0.26 µg/mL (≈ 0.811 µM) |
| COc1ccc(/C=N/Nc2cc(C)nc3cc4c(cc23)OCO4)cc1OC | – | 100 | – |
| COc1cccc2c(N/N=C/c3ccccc3)ccnc12 | 11.3 µM | 99 | – |
| COc1ccc2c(N/N=C/c3cccc(O)c3)ccnc2c1 | 2.7 µM | 100 | Selectivity Index [3]: 1.59; IC50 [4]: 1.09 µg/mL (≈ 3.72 µM) |
| COc1ccc2c(/C=N/Nc3ccnc4cc(OC)ccc34)ccnc2c1 | 2.2 µM | 100 | – |
| COc1ccc2nccc(N/N=C/c3ccc(N(C)C)cc3)c2c1 | 19.5 µM | 100 | – |
| CCN(CC)c1ccc(/C=N/Nc2cc(C)nc3cc4c(cc23)OCO4)cc1 | 8.3 µM | 100 | – |
| COc1cccc2c(N/N=C/c3ccc(N(C)C)cc3)ccnc12 | 19.5 µM | 100 | – |
| COc1ccc2c(N/N=C/c3ccccc3)ccnc2c1 | 16.4 µM | 100 | – |
| COc1ccc2c(N/N=C/c3ccnc4ccccc34)cc(C)nc2c1 | 4.6 µM | 100 | – |
| COc1ccc2c(N/N=C/c3ccc4ccccc4c3)ccnc2c1 | 0.6 µM | 100 | Selectivity Index [3]: 2.27; IC50 [4]: 0.454 µg/mL (≈ 1.39 µM) |
| COc1ccc2nc(C)cc(N/N=C/c3ccc4c(c3)OCO4)c2c1 | 4.8 µM | 100 | – |
| Cc1cc(N/N=C/C2CCCCC2)c2cc3c(cc2n1)OCO3 | – | 9 | – |
| COc1ccc2ccccc2c1/C=N/Nc1cc(C)nc2cc3c(cc12)OCO3 | – | 100 | – |

| SMILES | MIC [1] | inhibition at 6.25 µg/mL [2] [%] | also measured |
| --- | --- | --- | --- |
| Cc1cc(N/N=C/c2ccccc2)c2cc3c(cc2n1)OCO3 | 2.6 µM and 0.5 µg/mL | 100 | MIC [5]: 1 µg/mL (≈ 3.28 µM); MIC [6]: 0.12 µg/mL (≈ 0.393 µM); Activity [7]: Dose-dependent effect; MIC [8]: 0.12 µg/mL (≈ 0.393 µM); MIC [9]: 0.25 µg/mL (≈ 0.819 µM); Activity [10]: Toxic |
| COc1cccc2c(N/N=C/c3cccc4ccccc34)cc(C)nc12 | 9.3 µM | 99 | – |
| CCOc1ccc2c(N/N=C/c3ccncc3)cc(C)nc2c1 | – | 78 | – |
| CCOc1ccc2c(N/N=C/c3ccc(OC)cc3)ccnc2c1 | 9.7 µM | 100 | – |
| COc1ccc2nccc(N/N=C/C3CCCCC3)c2c1 | 11.1 µM | 99 | Selectivity Index [3]: 3.44; IC50 [4]: 5.03 µg/mL (≈ 17.8 µM) |
| COc1cccc(/C=N/Nc2cc(C)nc3cc4c(cc23)OCO4)c1 | 9.3 µM | 100 | – |
| COc1ccc2cc(/C=N/Nc3ccnc4cc(OC)ccc34)ccc2c1 | 0.6 µM | 100 | Selectivity Index [3]: 1.05; IC50 [4]: 0.211 µg/mL (≈ 0.59 µM) |
| COc1ccc(/C=N/Nc2ccnc3cc(OC)ccc23)cc1 | 9.8 µM | 100 | – |
| Cc1cc(N/N=C/c2ccc(O)cc2)c2cc3c(cc2n1)OCO3 | – | 100 | – |
| COc1cccc2c(N/N=C/c3ccc4ccccc4n3)ccnc12 | 4.8 µM | 99 | Selectivity Index [3]: 1.08; IC50 [4]: 1.68 µg/mL (≈ 5.12 µM) |
| COc1ccc(/C=N/Nc2cc(C)nc3cc4c(cc23)OCO4)c2ccccc12 | 4 µM | 100 | Selectivity Index [3]: 0.15; IC50 [4]: 0.24 µg/mL (≈ 0.623 µM) |
| Cc1cc(N/N=C/c2ncc[nH]2)c2cc3c(cc2n1)OCO3 | 5.3 µg/mL | 100 | Selectivity Index [3]: >66; IC50 [4]: > 100 µg/mL |
| COc1cccc2c(N/N=C/c3cccc4ccccc34)ccnc12 | – | 100 | – |
| CCOc1ccc2c(N/N=C/c3ccc4c(c3)OCO4)ccnc2c1 | – | 48 | – |
| COc1cccc2c(N/N=C/c3ccc4ccccc4n3)cc(C)nc12 | 4.7 µM | 100 | Selectivity Index [3]: 1.99; IC50 [4]: 3.11 µg/mL (≈ 9.08 µM) |
| COc1ccc2c(N/N=C/c3ccc(O)cc3)ccnc2c1 | 5.3 µM | 100 | Selectivity Index [3]: 2.53; IC50 [4]: 3.66 µg/mL (≈ 12.5 µM) |
| COc1cccc2c(N/N=C/c3ccnc4ccccc34)cc(C)nc12 | 9.1 µM | 98 | – |
| Cc1cc(N/N=C/c2cccc(O)c2)c2cc3c(cc2n1)OCO3 | – | 100 | – |
| COc1ccc2c(N/N=C/c3ccc[nH]3)ccnc2c1 | 11.8 µM | 99 | – |
| CCOc1ccc2c(N/N=C/c3ccc(OC)cc3)cc(C)nc2c1 | – | 20 | – |

| SMILES | MIC [1] | inhibition at 6.25 µg/mL [2] [%] | also measured |
| --- | --- | --- | --- |
| COc1ccc(/C=N/Nc2cc(C)nc3ccc(OC)cc23)cc1 | 4.8 µM | 100 | – |
| Cc1cc(N/N=C/c2ccc3c(c2)OCO3)c2cc3c(cc2n1)OCO3 | 4.5 µM | 100 | Selectivity Index [3]: 0.14; IC50 [4]: 0.22 µg/mL (≈ 0.63 µM) |
| CCOc1ccc2c(N/N=C/c3ccc4c(c3)OCO4)cc(C)nc2c1 | 9 µM | 98 | – |
| CO[C@H]1/C=C/O[C@@]2(C)Oc3c(C)c(O)c4c(O)c(c(/C=N/N5CCN(C)CC5)c(O)c4c3C2=O)NC(=O)/C(C)=C\C=C\[C@H](C)[C@H](O)[C@@H](C)[C@@H](O)[C@@H](C)[C@H](OC(C)=O)[C@@H]1C [RIFAMPIN] | 0.037 µM | – | – |
| COc1ccc2c(N/N=C/c3ccc4ccccc4n3)cc(C)nc2c1 | 4.6 µM | 100 | Selectivity Index [3]: 0.08; IC50 [4]: 0.12 µg/mL (≈ 0.35 µM) |
| COc1ccc(/C=N/Nc2ccnc3cc4c(cc23)OCO4)cc1 | 4.8 µM | 100 | – |
| Cc1cc(N/N=C/c2ccncc2)c2cc3c(cc2n1)OCO3 | – | 87 | – |
| C(=N\Nc1ccnc2cc3c(cc12)OCO3)/C1CCCCC1 | – | 74 | – |
| COc1cccc2c(N/N=C/c3ccc4c(c3)OCO4)cc(C)nc12 | – | 95 | – |
| COc1ccc(/C=N/Nc2cc(C)nc3cc(OC)ccc23)cc1 | 19.5 µM | 99 | – |
| Cc1cc(N/N=C/c2ccc[nH]2)c2cc3c(cc2n1)OCO3 | 10.6 µM | 100 | – |
| Cc1cc(N/N=C/c2ccc(F)cc2)c2cc3c(cc2n1)OCO3 | 19.3 µM | 100 | – |
| COc1ccc(/C=N/Nc2ccnc3ccc(OC)cc23)cc1 | 10.2 µM | 100 | – |
| COc1ccc2c(N/N=C/c3ccnc4ccccc34)ccnc2c1 | 9.5 µM | 100 | – |
| NNC(=O)c1ccncc1 [ISONIAZID] | 0.36 µM and 0.05 µg/mL | – | MIC [5]: 0.25 µg/mL (≈ 1.82 µM); MIC [6]: 0.05 µg/mL (≈ 0.365 µM); MIC [8]: 0.05 µg/mL (≈ 0.365 µM); MIC [9]: 0.05 µg/mL (≈ 0.365 µM) |
| COc1ccc2cc(/C=N/Nc3cc(C)nc4cc5c(cc34)OCO5)ccc2c1 | – | 100 | – |
| COc1ccc2nc(C)cc(N/N=C/c3ccc(N(C)C)cc3)c2c1 | 9.4 µM | 100 | – |
| COc1cccc2c(N/N=C/c3ccc4c(c3)OCO4)ccnc12 | – | 31 | – |
| COc1ccc2nccc(N/N=C/c3ccc4c(c3)OCO4)c2c1 | 2.4 µM | 100 | – |
| CCOc1ccc2c(N/N=C/c3ccncc3)ccnc2c1 | – | 26 | – |
